Data set [1] deals with HZ24-2B2 cells expressing rHuPH20. Briefly: Treatment of rHuPH20-expressing cells with glycosylation inhibitors. The format is cell-based, Chinese Hamster. To be noted: for Effect on PH20 activity (in words): tissue culture media and inside the cell. As to the method: Briefly, 1×10^6 HZ24-2B2 cells expressing rHuPH20 (see Example 14 below) were seeded in 24 mL complete CD-CHO medium in two 125 mL flasks. Tunicamycin (dissolved in DMSO) or Kifunensine (freshly dissolved in water) was added to a final concentration of 5 μg/mL (containing 12 μL DMSO). As a control, one flask was seeded with 1×10^6 HZ24-2B2 cells expressing rHuPH20 and 12 μL DMSO was added as a vehicle control. Following addition of either tunicamycin or kifunensine, the cells were incubated for 4-6 hours at 37° C. with 5% CO2. Following expression, a 2 mL culture was removed and centrifuged for 5 minutes at 500 g. The supernatant was stored at 4° C. and the cell pellets were stored at −20° C. The remaining 22 mL cultures were centrifuged for 5 minutes at 500 g. The supernatant was stored at 4° C. The cells were resuspended in 22 mL complete CD-CHO medium in the original two 125 mL flasks. Tunicamycin or Kifunensine was added to the culture at a final concentration of 5 μg/mL and the cells were incubated at 37° C. with 5% CO2. Two mL (2 mL) cultures were removed from each flask at approximately every 24 hours post changing medium. For each time point, the supernatant was stored at 4° C. and the cell pellets were stored at −20° C. The expression of rHuPH20 was analyzed by Western blot analysis and the hyaluronidase activity was measured using the biotinylated HA enzymatic assay (as described in Examples 3 and 5 above).

Data set [2] is described as follows: Microtiter hyaluronidase activity assay with biotinylated-hyaluronic acid. Particulars: Table 6, 72 hour post transfection supernatant. In kind it is biochemical. As to the method: In Example 4, the hyaluronidase activity of truncated human PH20 hyaluronidase is determined using biotinylated hyaluronic acid. The free carboxyl groups on the glucuronic acid residues of hyaluronic acid are biotinylated, and the biotinylated hyaluronic acid substrate is covalently coupled to a microtiter plate. Following incubation with hyaluronidase, the residual biotinylated hyaluronic acid substrate is detected using an avidin-peroxidase reaction, and compared to that obtained following reaction with hyaluronidase standards of known activity. […] The sensitivity permits rapid measurement of hyaluronidase activity from cultured cells and biological samples with an inter-assay variation of less than 10%.
In this example, the human PH20 hyaluronidase carboxy-terminus deletion mutants were tested for their PH20 hyaluronidase activity using a microtiter assay with biotinylated-hyaluronic acid (biotinylated-HA or bHA). The human PH20 hyaluronidase carboxy-terminus deletion mutants were tested for hyaluronidase activity at both pH 7.4 and pH 5.5.
In short, a 4×BH 96-well plate was coated with biotinylated-HA (1.1 MDa). The 72 hour post transfection supernatant from cells transfected with human PH20 hyaluronidase carboxy-terminus deletion mutants was diluted in buffer at either pH 7.4 or pH 5.5 and added to individual wells of the plate and allowed to incubate at 37° C. for 90 minutes. The reaction was terminated by addition of 4M guanidine HCl. The wells were washed 4× with Phosphate Buffered Saline with Tween20 (PBST) to remove any digested biotinylated-HA followed by addition of streptavidin-HRP for 1 hour at room temperature. The wells were washed 4× with PBST and the plate was developed with TMB. The plate was read at 450 nm using an ELISA plate reader. Hyaluronidase activity (in Units/mL) was determined by interpolating the measured absorbance at 450 nm with a hyaluronidase reference standard curve. Full length mature human PH20 hyaluronidase and untransfected CHO cells were used as positive and negative controls.

In data set [3] the test system is CHO-S cells. The data set can be described thus: Western blot analysis of PH20 expression in media and cells after transient expression. In kind it is cell-based, Chinese Hamster. Particulars: media versus cells. How it is done: The mutant PH20-HZ24 plasmids generated in Example 1 were transiently […] into CHO—S cells (derived from Chinese Hamster Ovary CHO K1 cells) using GeneJuice® (Novagen) according to the manufacturer's instructions. In short, the CHO—S cells were grown in CD CHO medium supplemented with L-glutamine. Prior to transfection, the CHO—S cells were plated in 6-well plates, with approximately 5×10^5 cells per well, and grown overnight at 37° C. with 5% CO2. The medium was then removed and the CHO—S cells were washed 2 times with 1 mL serum-free medium. GeneJuice® was mixed with serum-free media followed by the addition of 2 μg mutant-HZ24 DNA. After incubating at room temperature for 5-15 minutes, the GeneJuice®/DNA mixture was added dropwise to an individual well containing the washed CHO—S cells. After 4 hours, the medium was replaced with 1 mL CD-CHO medium supplemented with L-glutamine and the cells were incubated for 72 hours at 37° C. with 5% CO2. Following expression, the media and cells were harvested separately.
The mutant PH20-HZ24 plasmids generated in Example 1 were transiently […] into CHO—S cells using GeneJuice® (Novagen) according to the manufacturer's instructions. […]
In this example, following transient expression, as described in Example 2 above, the media and cells were harvested separately and analyzed for PH20 expression and solublility by Western blot analysis. Solubility of the C-terminus truncation mutants was determined by examining whether the expressed protein was present in the growth media or in the cells. […] Cells expressing these mutants were treated with phosphoinositol-phospholipase C (PI-PLC), which cleaves the GPI-anchor allowing the release of soluble protein into the media, and the presence of PH20 in the resulting media and cells was determined by Western blot analysis.
Non-reduced samples were run on a 4-20% Tris-Glycine gel and transferred to PVDF membrane using iBlot (Invitrogen). For the Western blot, rabbit anti-PH20 IgG (0.5 μg/mL) was used as the primary antibody and HRP-conjugated goat anti-rabbit IgG (0.1 ng/mL, Cat#DC03L, EMD) was used as the secondary antibody. Evidence of expression is determined by a band at approximately 66 kDa, corresponding to recombinant human PH20 hyaluronidase.
(In general: In western blotting, separated proteins are transferred to a membrane and probed.)

We go through four molecules from US9284543B2, “Neutral active soluble truncated PH20 polypeptides and uses thereof” (Halozyme, Inc., priority 2008, dated 2016).

`O=C1N[C@@H]2[C@@H](O)[C@@H](O)[C@H](O)[C@@H](CO)N2C1=O` [Kifunensine]: the PH20 activity came to 22.25 U/mL in data set [1] (Cell Pellets, With Kifunensine, 0 hours); 21.25 U/mL in data set [1] (Cell Pellets, With Kifunensine, 6 hours); 27.75 U/mL in data set [1] (Cell Pellets, With Kifunensine, 24 hours); 43 U/mL in data set [1] (Cell Pellets, With Kifunensine, 50 hours); 98.75 U/mL in data set [1] (Cell Pellets, With Kifunensine, 72 hours); 208.75 U/mL in data set [1] (Cell Pellets, With Kifunensine, 96 hours). Also, the PH20 activity in data set [1] (Cell Pellets, With Kifunensine, […]) was 497.25 U/mL; in data set [1] (Tissue Culture Media, With Kifunensine, 0 hours), 0.4 U/mL; in data set [1] (Tissue Culture Media, With Kifunensine, 6 hours) it was 23.85 U/mL; in data set [1] (Tissue Culture Media, With Kifunensine, 24 hours), 129.6 U/mL; in data set [1] (Tissue Culture Media, With Kifunensine, 50 hours), 299.7 U/mL; in data set [1] (Tissue Culture Media, With Kifunensine, 72 hours), 535.95 U/mL. The PH20 activity in data set [1] (Tissue Culture Media, With Kifunensine, 96 hours) was 945 U/mL; in data set [1] (Tissue Culture Media, With Kifunensine, […]) it was 2968.65 U/mL. In addition, the “Viable Cells” value in data set [1] (With Kifunensine 5 μg/mL, 0 hours) was 1 ×10^6; in data set [1] (With Kifunensine 5 μg/mL, 6 hours) it was 1 ×10^6; in data set [1] (With Kifunensine 5 μg/mL, 24 hours), 1.2 ×10^6; in data set [1] (With Kifunensine 5 μg/mL, 50 hours), 2.1 ×10^6; in data set [1] (With Kifunensine 5 μg/mL, 72 hours), 3 ×10^6; in data set [1] (With Kifunensine 5 μg/mL, 96 hours) it was 3.7 ×10^6. The “Viable Cells” value in data set [1] (With Kifunensine 5 μg/mL, […]) is recorded as 5.8 ×10^6. Also, the “Effect on PH20 activity (in words)” value in data set [1] (5 μg/mL) is on record as “did not affect the activity of PH20”. Further, in data set [1] (western blot analysis, 5 μg/mL), the “Effect on expression and secretion of rHuPH20” value was “inhibited the expression and secretion of rHuPH20”.

Consider Tunicamycin, for which the “Effect on cell viability (in words)” value in data set [1] (5 μg/mL) is “complete loss of cell viability”. The PH20 activity in data set [1] (Cell Pellets, With Tunicamycin, 0 hours) amounted to 34.50 U/mL; in data set [1] (Cell Pellets, With Tunicamycin, 1 hours), 38.00 U/mL; in data set [1] (Cell Pellets, With Tunicamycin, 2 hours) it was 34.00 U/mL; in data set [1] (Cell Pellets, With Tunicamycin, 4 hours), 18.00 U/mL; in data set [1] (Cell Pellets, With Tunicamycin, 25 hours), 1.00 U/mL; in data set [1] (Cell Pellets, With Tunicamycin, 49 hours) it was 0.80 U/mL. The PH20 activity in data set [1] (Cell Pellets, With Tunicamycin, 73 hours) is 0.30 U/mL; in data set [1] (Cell Pellets, With Tunicamycin, 91 hours) it was 0.30 U/mL; in data set [1] (Tissue Culture Media, With Tunicamycin, 0 hours) it was 0.50 U/mL; in data set [1] (Tissue Culture Media, With Tunicamycin, 1 hours), 2.80 U/mL; in data set [1] (Tissue Culture Media, With Tunicamycin, 2 hours) it was 5.00 U/mL; in data set [1] (Tissue Culture Media, With Tunicamycin, 4 hours) it was 8.80 U/mL. For the same molecule, the PH20 activity in data set [1] (Tissue Culture Media, With Tunicamycin, 25 hours) was 5.80 U/mL; in data set [1] (Tissue Culture Media, With Tunicamycin, 49 hours) it was 6.80 U/mL; in data set [1] (Tissue Culture Media, With Tunicamycin, 73 hours), 7.80 U/mL; in data set [1] (Tissue Culture Media, With Tunicamycin, 91 hours), 7.50 U/mL. The “Viable Cells” value in data set [1] (With Tunicamycin 5 μg/mL, 0 hours) is 1.04 ×10^6; in data set [1] (With Tunicamycin 5 μg/mL, 1 hours), 1.04 ×10^6; in data set [1] (With Tunicamycin 5 μg/mL, 2 hours) it was 1.04 ×10^6; in data set [1] (With Tunicamycin 5 μg/mL, 4 hours) it was 0.910 ×10^6; in data set [1] (With Tunicamycin 5 μg/mL, 25 hours) it was 1.08 ×10^6; in data set [1] (With Tunicamycin 5 μg/mL, 49 hours), 0.200 ×10^6. Further, the “Viable Cells” value in data set [1] (With Tunicamycin 5 μg/mL, 73 hours) is on record as 0.080 ×10^6; in data set [1] (With Tunicamycin 5 μg/mL, 91 hours), 0 ×10^6. Further, the “Accumulation of deglycosylated human PH20 inside the cell” value in data set [1] (one hour of treatment, SDS-PAGE mobility shift to approximately 56 kDa in cell pellet fractions) was “accumulation of deglycosylated human PH20 hyaluronidase inside the cell”. Moreover, the “Effect on PH20 activity (in words)” value in data set [1] (5 μg/mL) is given as “inhibits PH20 activity”.

B1: VASL + PLC: full length human PH20 (SEQ ID NO: 108) with PLC treatment (protein, listed as Homo sapiens)
chain: LNFRAPPVIPNVPFLWAWNAPSEFCLGKFDEPLDMSLFSFIGSPRINATGQGVTIFYVDRLGYYPYIDSITGVTVNGGIPQKISLQDHLDKAKKDITFYMPVDNLGMAVIDWEEWRPTWARNWKPKDVYKNRSIELVQQQNVQLSLTEATEKAKQEFEKAGKDFLVETIKLGKLLRPNHLWGYYLFPDCYNHHYKKPGYNGSCFNVEIKRNDDLSWLWNESTALYPSIYLNTQQSPVAATLYVRNRVREAIRVSKIPDAKSPLPVFAYTRIVFTDQVLKFLSQDELVYTFGETVALGASGIVIWGTLSIMRSMKSCLLLDNYMETILNPYIINVTLAAKMCSQVLCQEQGVCIRKNWNSSDYLHLNPDNFAIQLEKGGKFTVRGKPTLEDLEQFSEKFYCSCYSTLSCKEKADVKDTDAVDVCIADGVCIDAFLKPPMETEEPQIFYNASPSTLSATMFIVSILFLIISSVASL
modifications: PLC treatment; Mature Human PH20 36-509
Regarding B1, in data set [2], the “pH 5.5 Activity” value came to 2.313 Units/ml and the “pH 7.4 Activity” value turned out to be 3.96 Units/ml.

B2: SPAM1-AFLK: C-terminally truncated human PH20, precursor 470 aa (SEQ ID NO:30), mature 435 aa (SEQ ID NO:82) (protein, listed as Homo sapiens)
chain: MGVLKFKHIFFRSFVKSSGVSQIVFTFLLIPCCLTLNFRAPPVIPNVPFLWAWNAPSEFCLGKFDEPLDMSLFSFIGSPRINATGQGVTIFYVDRLGYYPYIDSITGVTVNGGIPQKISLQDHLDKAKKDITFYMPVDNLGMAVIDWEEWRPTWARNWKPKDVYKNRSIELVQQQNVQLSLTEATEKAKQEFEKAGKDFLVETIKLGKLLRPNHLWGYYLFPDCYNHHYKKPGYNGSCFNVEIKRNDDLSWLWNESTALYPSIYLNTQQSPVAATLYVRNRVREAIRVSKIPDAKSPLPVFAYTRIVFTDQVLKFLSQDELVYTFGETVALGASGIVIWGTLSIMRSMKSCLLLDNYMETILNPYIINVTLAAKMCSQVLCQEQGVCIRKNWNSSDYLHLNPDNFAIQLEKGGKFTVRGKPTLEDLEQFSEKFYCSCYSTLSCKEKADVKDTDAVDVCIADGVCIDAFLK
modifications: HuPH20 precursor 1-470
As for B2, in data set [2], the “pH 5.5 Activity” value was found to be 2.925 Units/ml and the “pH 7.4 Activity” value came out at 3.204 Units/ml. Also, the “Expressed in Media” value in data set [3] was “YES”.
